Measurements published in ChEMBL document CHEMBL5252622, “Discovery of a brain-sparing GIRK1/4 inhibitor for pharmacological cardioversion of atrial fibrillation” (Bioorg Med Chem Lett, 2023).
Converted amounts (≈) assume the structure as drawn. The source made the active and inactive calls. No cut-off for these calls is given here.

Assays:
[1] = Apparent permeability across apical to basolateral side in MDCK cells; format: ADME, cell-based, Canis lupus familiaris; conditions: dog
[2] = Aqueous solubility of the compound at pH 6.8; format: physicochemical
[3] = system: MDCK; experiment: Substrate activity at p-glycoprotein in MDCK cells overexpressing MDR1 assessed as efflux ratio of permeability from basolateral to apical side over apical to basolateral side; format: cell-based; conditions: Canis lupus familiaris
[4] = biological target: T1, Kir3.1/Kir3.4 (Homo sapiens, UniProt P48544+P48549); experiment: Inhibition of recombinant human GIRK1/4 channel; format: protein-complex assay
T1 sequence (P48549 whole entry): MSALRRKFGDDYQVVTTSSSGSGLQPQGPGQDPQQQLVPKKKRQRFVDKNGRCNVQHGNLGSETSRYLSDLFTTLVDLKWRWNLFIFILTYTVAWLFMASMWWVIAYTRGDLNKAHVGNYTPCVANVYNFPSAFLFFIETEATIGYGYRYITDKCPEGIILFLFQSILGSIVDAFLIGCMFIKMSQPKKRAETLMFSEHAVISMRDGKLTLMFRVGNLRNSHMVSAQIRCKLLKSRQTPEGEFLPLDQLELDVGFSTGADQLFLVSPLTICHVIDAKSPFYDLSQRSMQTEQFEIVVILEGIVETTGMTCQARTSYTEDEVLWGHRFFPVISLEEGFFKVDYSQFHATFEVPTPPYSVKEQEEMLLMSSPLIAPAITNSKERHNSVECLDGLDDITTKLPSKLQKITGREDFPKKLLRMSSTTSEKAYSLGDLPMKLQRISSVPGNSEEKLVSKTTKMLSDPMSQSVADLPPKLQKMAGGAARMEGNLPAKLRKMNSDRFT
T1 sequence (P48544 whole entry): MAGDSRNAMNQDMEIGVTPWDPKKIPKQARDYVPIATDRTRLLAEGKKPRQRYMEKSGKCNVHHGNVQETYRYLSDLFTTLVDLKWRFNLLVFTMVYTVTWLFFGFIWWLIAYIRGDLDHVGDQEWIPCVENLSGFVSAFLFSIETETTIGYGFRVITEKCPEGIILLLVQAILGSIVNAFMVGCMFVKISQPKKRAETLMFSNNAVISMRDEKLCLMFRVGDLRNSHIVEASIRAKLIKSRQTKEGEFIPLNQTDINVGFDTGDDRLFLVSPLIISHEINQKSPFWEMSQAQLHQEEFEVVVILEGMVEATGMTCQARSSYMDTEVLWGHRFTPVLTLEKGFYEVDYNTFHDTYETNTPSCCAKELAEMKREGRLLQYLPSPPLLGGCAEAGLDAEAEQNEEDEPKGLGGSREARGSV

[5] = Brain to plasma ratio in rat; format: ADME; conditions: read-out: BPR
[6] = Intrinsic clearance in human liver microsomes; format: ADME, Microsome; conditions: read-out: CLH
[7] = biological target: T2, Potassium voltage-gated channel subfamily KQT member 1 (Homo sapiens, UniProt P51787); experiment: Inhibition of recombinant human KCNQ1; format: toxicity
T2 sequence (P51787 whole entry): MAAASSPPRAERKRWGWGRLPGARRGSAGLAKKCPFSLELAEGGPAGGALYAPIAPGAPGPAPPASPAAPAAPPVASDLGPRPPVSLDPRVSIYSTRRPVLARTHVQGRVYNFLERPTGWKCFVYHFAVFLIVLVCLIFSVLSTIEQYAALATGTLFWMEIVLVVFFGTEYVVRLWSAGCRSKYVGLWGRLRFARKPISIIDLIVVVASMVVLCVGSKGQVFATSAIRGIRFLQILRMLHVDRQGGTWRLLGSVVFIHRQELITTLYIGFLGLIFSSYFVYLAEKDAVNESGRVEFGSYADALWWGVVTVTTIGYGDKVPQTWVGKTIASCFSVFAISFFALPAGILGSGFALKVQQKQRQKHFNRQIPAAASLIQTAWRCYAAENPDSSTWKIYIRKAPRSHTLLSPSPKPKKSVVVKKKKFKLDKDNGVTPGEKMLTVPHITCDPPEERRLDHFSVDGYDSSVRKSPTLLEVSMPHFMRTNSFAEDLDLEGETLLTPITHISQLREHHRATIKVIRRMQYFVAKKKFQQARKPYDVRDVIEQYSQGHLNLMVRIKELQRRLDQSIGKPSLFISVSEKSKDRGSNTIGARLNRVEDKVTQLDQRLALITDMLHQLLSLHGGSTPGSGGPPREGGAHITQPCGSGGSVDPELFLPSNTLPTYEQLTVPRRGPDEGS

[8] = Toxicity in iv dosed rat assessed as neurobehavioral disturbances by measuring increase in motor activity; format: organism-based; conditions: in vivo
[9] = biological target: T3, Kir3.1/Kir3.2 (Homo sapiens, UniProt P48051+P48549); experiment: (§1) Inhibition of recombinant human GIRK1/2 channel; format: protein-complex assay
T3 sequence (P48549 whole entry): T1 sequence (P48549 whole entry)
T3 sequence (P48051 whole entry): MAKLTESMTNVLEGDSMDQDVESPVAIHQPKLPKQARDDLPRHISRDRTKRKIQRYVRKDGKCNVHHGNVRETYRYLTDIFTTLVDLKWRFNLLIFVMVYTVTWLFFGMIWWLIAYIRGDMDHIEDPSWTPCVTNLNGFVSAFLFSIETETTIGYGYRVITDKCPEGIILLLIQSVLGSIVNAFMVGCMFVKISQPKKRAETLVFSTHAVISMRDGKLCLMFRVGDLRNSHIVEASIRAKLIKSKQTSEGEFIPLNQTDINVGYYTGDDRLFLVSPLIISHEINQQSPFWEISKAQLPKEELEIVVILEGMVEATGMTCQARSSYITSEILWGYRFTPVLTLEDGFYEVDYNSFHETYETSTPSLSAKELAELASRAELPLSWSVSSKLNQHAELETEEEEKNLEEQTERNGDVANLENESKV

[10] = biological target: Voltage-gated inwardly rectifying potassium channel KCNH2 (Homo sapiens, UniProt Q12809); experiment: Inhibition of recombinant hERG in the presence of dofetilide by competitive binding assay; format: toxicity
[11] = Toxicity in iv dosed rat assessed as neurobehavioral disturbances by measuring convulsions; format: organism-based; conditions: in vivo
[12] = biological target: Sodium channel protein type 5 subunit alpha (Homo sapiens, UniProt Q14524); experiment: Inhibition of recombinant human Nav1.5; format: toxicity
Chain of Sodium channel protein type 5 subunit alpha (Q14524 whole entry): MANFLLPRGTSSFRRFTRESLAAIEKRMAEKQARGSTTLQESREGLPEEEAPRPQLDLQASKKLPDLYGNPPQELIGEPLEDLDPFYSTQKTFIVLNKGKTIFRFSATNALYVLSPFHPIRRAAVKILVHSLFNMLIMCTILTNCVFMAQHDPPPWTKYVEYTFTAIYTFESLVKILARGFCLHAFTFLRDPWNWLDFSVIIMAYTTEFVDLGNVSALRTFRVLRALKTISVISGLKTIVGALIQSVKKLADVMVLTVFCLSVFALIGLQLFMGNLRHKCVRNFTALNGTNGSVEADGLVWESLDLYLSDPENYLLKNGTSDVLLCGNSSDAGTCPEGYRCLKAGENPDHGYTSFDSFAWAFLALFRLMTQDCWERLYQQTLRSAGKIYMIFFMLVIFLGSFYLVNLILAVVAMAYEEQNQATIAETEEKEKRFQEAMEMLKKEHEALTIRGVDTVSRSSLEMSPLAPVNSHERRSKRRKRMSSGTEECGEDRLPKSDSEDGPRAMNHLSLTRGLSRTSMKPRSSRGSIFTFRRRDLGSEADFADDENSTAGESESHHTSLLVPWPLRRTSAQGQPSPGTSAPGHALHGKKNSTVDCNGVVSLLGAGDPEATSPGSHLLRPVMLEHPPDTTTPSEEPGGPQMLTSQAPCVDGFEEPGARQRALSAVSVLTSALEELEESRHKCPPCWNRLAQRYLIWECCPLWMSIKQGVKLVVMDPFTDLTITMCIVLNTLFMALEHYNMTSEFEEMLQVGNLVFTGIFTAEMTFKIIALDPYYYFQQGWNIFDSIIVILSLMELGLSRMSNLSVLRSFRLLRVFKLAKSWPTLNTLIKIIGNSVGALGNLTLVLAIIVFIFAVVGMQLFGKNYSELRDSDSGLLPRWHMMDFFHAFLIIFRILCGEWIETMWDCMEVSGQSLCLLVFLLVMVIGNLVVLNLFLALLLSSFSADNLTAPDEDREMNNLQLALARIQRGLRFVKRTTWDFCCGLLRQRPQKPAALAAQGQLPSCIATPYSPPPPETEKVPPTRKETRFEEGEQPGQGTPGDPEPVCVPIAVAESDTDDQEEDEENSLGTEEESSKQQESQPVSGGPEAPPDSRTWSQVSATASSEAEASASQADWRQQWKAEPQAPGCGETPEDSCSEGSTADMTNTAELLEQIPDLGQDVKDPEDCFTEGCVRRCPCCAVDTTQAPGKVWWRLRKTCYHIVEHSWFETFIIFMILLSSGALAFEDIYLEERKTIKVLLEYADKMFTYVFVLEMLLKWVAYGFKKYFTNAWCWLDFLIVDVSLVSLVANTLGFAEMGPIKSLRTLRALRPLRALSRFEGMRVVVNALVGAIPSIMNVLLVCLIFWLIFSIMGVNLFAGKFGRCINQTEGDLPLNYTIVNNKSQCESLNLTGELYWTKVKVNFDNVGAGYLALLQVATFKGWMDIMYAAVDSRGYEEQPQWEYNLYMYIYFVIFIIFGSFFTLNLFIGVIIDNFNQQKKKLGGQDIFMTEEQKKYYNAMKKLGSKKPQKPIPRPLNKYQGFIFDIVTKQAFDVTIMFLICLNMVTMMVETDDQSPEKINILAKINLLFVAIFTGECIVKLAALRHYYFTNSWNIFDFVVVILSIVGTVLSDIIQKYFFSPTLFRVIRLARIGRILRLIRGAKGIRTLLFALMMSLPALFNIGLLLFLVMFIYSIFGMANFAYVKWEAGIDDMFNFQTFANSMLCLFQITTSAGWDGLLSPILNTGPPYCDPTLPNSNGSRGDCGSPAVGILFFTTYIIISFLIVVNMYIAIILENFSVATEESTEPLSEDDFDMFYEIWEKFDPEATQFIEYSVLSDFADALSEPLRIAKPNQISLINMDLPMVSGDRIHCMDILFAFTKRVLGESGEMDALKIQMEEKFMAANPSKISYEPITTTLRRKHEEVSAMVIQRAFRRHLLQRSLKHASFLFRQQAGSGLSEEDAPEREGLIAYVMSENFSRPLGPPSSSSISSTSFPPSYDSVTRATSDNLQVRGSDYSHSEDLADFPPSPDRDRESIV

[13] = Intrinsic clearance in rat liver microsomes; format: ADME, Microsome; conditions: read-out: CLH
[14] = biological target: Voltage-dependent L-type calcium channel subunit alpha-1C (Homo sapiens, UniProt Q13936); experiment: Inhibition of recombinant human Cav1.2; format: toxicity
Chain of Voltage-dependent L-type calcium channel subunit alpha-1C (Q13936 whole entry): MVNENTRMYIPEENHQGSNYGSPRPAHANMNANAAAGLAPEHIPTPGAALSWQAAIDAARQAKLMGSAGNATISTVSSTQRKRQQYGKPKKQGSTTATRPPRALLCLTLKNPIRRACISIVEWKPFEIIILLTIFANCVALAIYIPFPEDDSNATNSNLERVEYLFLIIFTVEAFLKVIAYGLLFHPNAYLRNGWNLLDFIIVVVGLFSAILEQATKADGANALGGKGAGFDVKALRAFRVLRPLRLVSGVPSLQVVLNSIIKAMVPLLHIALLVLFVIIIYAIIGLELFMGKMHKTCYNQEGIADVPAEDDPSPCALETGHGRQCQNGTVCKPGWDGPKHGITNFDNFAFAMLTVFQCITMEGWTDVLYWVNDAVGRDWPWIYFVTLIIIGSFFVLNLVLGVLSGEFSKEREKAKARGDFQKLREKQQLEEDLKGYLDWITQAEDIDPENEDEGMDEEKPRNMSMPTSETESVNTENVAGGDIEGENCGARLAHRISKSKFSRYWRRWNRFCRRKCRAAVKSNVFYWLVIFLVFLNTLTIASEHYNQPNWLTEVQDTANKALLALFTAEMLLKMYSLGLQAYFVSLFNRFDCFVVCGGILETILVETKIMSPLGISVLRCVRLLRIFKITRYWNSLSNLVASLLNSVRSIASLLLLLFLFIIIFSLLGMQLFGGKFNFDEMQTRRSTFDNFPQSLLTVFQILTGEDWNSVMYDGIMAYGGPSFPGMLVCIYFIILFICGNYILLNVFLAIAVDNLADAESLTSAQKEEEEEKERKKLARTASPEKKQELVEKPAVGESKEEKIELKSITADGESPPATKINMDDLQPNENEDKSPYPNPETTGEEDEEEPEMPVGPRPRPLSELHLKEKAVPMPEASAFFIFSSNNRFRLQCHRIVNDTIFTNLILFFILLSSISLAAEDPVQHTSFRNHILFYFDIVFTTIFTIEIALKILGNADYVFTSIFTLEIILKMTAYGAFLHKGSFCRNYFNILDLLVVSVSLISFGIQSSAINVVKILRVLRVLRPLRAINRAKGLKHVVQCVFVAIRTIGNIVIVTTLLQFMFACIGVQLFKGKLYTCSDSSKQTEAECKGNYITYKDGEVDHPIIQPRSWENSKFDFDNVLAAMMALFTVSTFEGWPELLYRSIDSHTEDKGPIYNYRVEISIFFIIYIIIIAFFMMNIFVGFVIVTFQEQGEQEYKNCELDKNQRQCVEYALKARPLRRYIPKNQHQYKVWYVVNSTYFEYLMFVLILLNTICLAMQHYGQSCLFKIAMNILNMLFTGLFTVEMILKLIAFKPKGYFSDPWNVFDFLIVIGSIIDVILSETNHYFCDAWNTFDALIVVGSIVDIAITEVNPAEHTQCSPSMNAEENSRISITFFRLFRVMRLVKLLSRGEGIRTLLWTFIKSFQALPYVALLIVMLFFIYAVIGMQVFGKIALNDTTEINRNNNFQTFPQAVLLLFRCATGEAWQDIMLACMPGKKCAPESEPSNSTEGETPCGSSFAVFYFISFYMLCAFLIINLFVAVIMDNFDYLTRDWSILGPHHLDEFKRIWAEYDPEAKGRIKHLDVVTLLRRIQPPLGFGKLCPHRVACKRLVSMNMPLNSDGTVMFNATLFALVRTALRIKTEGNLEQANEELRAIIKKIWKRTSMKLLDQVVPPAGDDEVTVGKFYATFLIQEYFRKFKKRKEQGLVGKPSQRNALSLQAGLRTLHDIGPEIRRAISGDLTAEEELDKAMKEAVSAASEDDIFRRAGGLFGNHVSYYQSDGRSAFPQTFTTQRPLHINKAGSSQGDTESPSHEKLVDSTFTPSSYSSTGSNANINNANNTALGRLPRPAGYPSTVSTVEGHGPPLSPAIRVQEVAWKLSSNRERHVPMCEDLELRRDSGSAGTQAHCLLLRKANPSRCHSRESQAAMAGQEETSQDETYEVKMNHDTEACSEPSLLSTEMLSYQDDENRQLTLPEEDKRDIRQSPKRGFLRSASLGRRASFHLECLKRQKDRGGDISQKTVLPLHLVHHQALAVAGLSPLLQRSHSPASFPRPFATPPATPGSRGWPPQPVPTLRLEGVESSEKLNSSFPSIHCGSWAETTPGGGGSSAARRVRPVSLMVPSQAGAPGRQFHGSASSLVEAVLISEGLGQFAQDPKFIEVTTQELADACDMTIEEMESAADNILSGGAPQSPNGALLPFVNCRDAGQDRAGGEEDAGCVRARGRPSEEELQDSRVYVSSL

[15] = biological target: Kir3.1/Kir3.2 (Homo sapiens) (UniProt P48549+P48051); experiment: as §1; format: protein-complex assay

SMILES	Papp A→B [1] [×10⁻⁶ cm/s]	solubility [2] [µM]	Ratio [3]	IC50 [4] [nM]	also measured
Cc1cc(=O)c2c(OCCOCCOCCOCCO)ncc(Cl)c2n1-c1c(Cl)cccc1Cl	23	600 (≈ 319 µg/mL)	5.7		
Cc1cc(=O)c2c(OCC(O)COCC(O)CO)ncc(Cl)c2n1-c1c(Cl)cccc1Cl (stereo unspecified)	7.5	720 (≈ 363 µg/mL)	15		
O=c1cc(CO)n(-c2c(Cl)cccc2Cl)c2c(Cl)cnc(OC(CO)CO)c12	6.9	300 (≈ 134 µg/mL)	18.3	250	
Cc1cc(=O)c2c(OCC(O)CC(O)CO)ncc(Cl)c2n1-c1c(Cl)cccc1Cl (stereo unspecified)	16.6	230 (≈ 109 µg/mL)	4.5	87	
Cc1cc(=O)c2c(F)cncc2n1-c1c(Cl)cc(OCC(O)CO)cc1Cl (stereo unspecified)	31	660 (≈ 273 µg/mL)	0.9	11	Kp [5]: 1
COc1ncc(Cl)c2c1c(=O)cc(CO)n2-c1c(Cl)cccc1Cl	22.6	89 (≈ 34.3 µg/mL)	2.7	27	
COc1ncc(C)c2c1c(=O)cc(CO)n2-c1c(Cl)cccc1Cl	8.5	280 (≈ 102 µg/mL)		290	
O=c1cc(CO)n(-c2c(Cl)cccc2Cl)c2c(Cl)cnc(OCC(O)CO)c12 (stereo unspecified)	7	700 (≈ 312 µg/mL)	12.1	80	
Cc1cc(=O)c2c(F)cncc2n1-c1c(Cl)cc(C#N)cc1Cl	13.9	52 (≈ 18.1 µg/mL)	1.8	190	microsomal CLint [6]: 12 µL/min/mg; IC50 [7]: > 50000 nM; Activity [8]: Toxic; IC50 [9]: 200 nM; IC50 [10]: > 30000 nM; Activity [11]: Toxic; IC50 [12]: > 50000 nM; microsomal CLint [13]: 18 µL/min/mg; IC50 [14]: > 50000 nM
Cc1cc(=O)c2c(F)cncc2n1-c1c(Cl)cc(C#CCN2CCOCC2)cc1Cl	20.4	240 (≈ 107 µg/mL)	1.1	220	
Cc1cc(=O)c2c(OCC(O)CO)nc(N3CCOCC3)cc2n1-c1c(Cl)cccc1Cl (stereo unspecified)	13.1	680 (≈ 327 µg/mL)		> 5000	
CS(=O)(=O)CCCOc1ncc(Cl)c2c1c(=O)cc(CO)n2-c1c(Cl)cccc1Cl	10.1	500 (≈ 246 µg/mL)	40.7	100	
COc1cc(Cl)c(-n2c(C)cc(=O)c3c(F)cncc32)c(Cl)c1	39.1	46 (≈ 16.2 µg/mL)	1.1	2	
CSc1c(C#N)c(=O)c2ccc(F)cc2n1-c1c(Cl)cccc1Cl		13 (≈ 4.93 µg/mL)		50	microsomal CLint [6]: 77 µL/min/mg; IC50 [7]: 33000 nM; inhibition [15]: inactive; IC50 [10]: > 30000 nM; IC50 [12]: > 50000 nM; microsomal CLint [13]: 236 µL/min/mg; IC50 [14]: 24200 nM
Cc1cc(=O)c2c(OCCO)ncc(Cl)c2n1-c1c(Cl)cccc1Cl	32.6	430 (≈ 172 µg/mL)	0.7		
O=c1cc(CO)n(-c2c(Cl)cccc2Cl)c2c(Cl)cnc(OC[C@@H](O)CO)c12	5		10.6	150	IC50 [7]: > 50000 nM; IC50 [10]: > 50000 nM; IC50 [12]: > 50000 nM; IC50 [14]: > 50000 nM
Cc1cc(=O)c2c(F)cncc2n1-c1c(Cl)cc(C#CCO)cc1Cl	26.6	170 (≈ 64.1 µg/mL)	1.7	140	
